{"source": "the supplement of paper PMC10307832", "assay_in_all_cases": "relative viability (nuclei count vs DMSO), 5 days (fraction); higher = more cells survive", "key": {"NCI-H3122": {"system": "NCI-H3122", "in_short": "(§1)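 Five library-drug doses in √10 steps were combined with a fixed anchor-drug dose, or a single drug was given alone, by pin tool to lung cancer cell lines in 1536-well plates the day after seeding. Nuclei were stained and counted after 5 days. Relative viability is the nuclei count in treated wells over that in vehicle wells, taken as the median of duplicate plates.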"}, "EPLC-272H": {"system": "EPLC-272H", "in_short": "as §1"}, "LCLC-103H": {"system": "LCLC-103H", "in_short": "as §1"}, "NCI-H2126": {"system": "NCI-H2126", "in_short": "as §1"}, "SW 1573": {"system": "SW 1573", "in_short": "as §1"}, "LK-2": {"system": "LK-2", "in_short": "as §1"}, "NCI-H322M": {"system": "NCI-H322M", "in_short": "as §1"}, "SK-LU-1": {"system": "SK-LU-1", "in_short": "as §1"}, "NCI-H1975": {"system": "NCI-H1975", "in_short": "as §1"}, "NCI-H2085": {"system": "NCI-H2085", "in_short": "as §1"}, "NCI-H1666": {"system": "NCI-H1666", "in_short": "as §1"}, "ChaGo-K-1": {"system": "ChaGo-K-1", "in_short": "as §1"}, "NCI-H23": {"system": "NCI-H23", "in_short": "as §1"}, "LOU-NH91": {"system": "LOU-NH91", "in_short": "as §1"}, "NCI-H1563": {"system": "NCI-H1563", "in_short": "as §1"}, "LU99A": {"system": "LU99A", "in_short": "as §1"}, "HCC-827": {"system": "HCC-827", "in_short": "as §1"}, "HCC-78": {"system": "HCC-78", "in_short": "as §1"}, "EMC-BAC-2": {"system": "EMC-BAC-2", "in_short": "as §1"}, "NCI-H2405": {"system": "NCI-H2405", "in_short": "as §1"}, "LXF-289": {"system": "LXF-289", "in_short": "as §1"}, "RERF-LC-KJ": {"system": "RERF-LC-KJ", "in_short": "as §1"}}}
{"smiles": "O=C(O)c1ccc(-c2c[nH]c3ncc(-c4ccccc4)cc23)cc1C1CCCC1", "note": "+ CS(=O)(=O)N1CCN(Cc2cc3nc(-c4cccc5[nH]ncc45)nc(N4CCOCC4)c3s2)CC1 [Pictilisib] (partner 1 µM)", "values": [{"measurement": "relative viability", "setting": "NCI-H3122; first compound 0.04 µM", "value": 0.565}, {"measurement": "relative viability", "setting": "NCI-H3122; first compound 0.1265 µM", "value": 0.683}, {"measurement": "relative viability", "setting": "NCI-H3122; first compound 0.4 µM", "value": 0.619}, {"measurement": "relative viability", "setting": "NCI-H3122; first compound 1.265 µM", "value": 0.574}, {"measurement": "relative viability", "setting": "EPLC-272H; first compound 0.04 µM", "value": 0.381}, {"measurement": "relative viability", "setting": "EPLC-272H; first compound 0.1265 µM", "value": 0.318}, {"measurement": "relative viability", "setting": "EPLC-272H; first compound 0.4 µM", "value": 0.266}, {"measurement": "relative viability", "setting": "EPLC-272H; first compound 1.265 µM", "value": 0.342}, {"measurement": "relative viability", "setting": "LCLC-103H; first compound 0.04 µM", "value": 0.631}, {"measurement": "relative viability", "setting": "LCLC-103H; first compound 0.1265 µM", "value": 0.693}, {"measurement": "relative viability", "setting": "LCLC-103H; first compound 0.4 µM", "value": 0.57}, {"measurement": "relative viability", "setting": "LCLC-103H; first compound 1.265 µM", "value": 0.632}, {"measurement": "relative viability", "setting": "NCI-H2126; first compound 0.04 µM", "value": 0.551}, {"measurement": "relative viability", "setting": "NCI-H2126; first compound 0.1265 µM", "value": 0.486}, {"measurement": "relative viability", "setting": "NCI-H2126; first compound 0.4 µM", "value": 0.497}, {"measurement": "relative viability", "setting": "NCI-H2126; first compound 1.265 µM", "value": 0.46}, {"measurement": "relative viability", "setting": "SW 1573; first compound 0.04 µM", "value": 0.638}, {"measurement": "relative viability", "setting": "SW 1573; first compound 0.1265 µM", "value": 0.621}, {"measurement": "relative viability", "setting": "SW 1573; first compound 0.4 µM", "value": 0.512}, {"measurement": "relative viability", "setting": "SW 1573; first compound 1.265 µM", "value": 0.317}, {"measurement": "relative viability", "setting": "LK-2; first compound 0.04 µM", "value": 0.754}, {"measurement": "relative viability", "setting": "LK-2; first compound 0.1265 µM", "value": 0.507}, {"measurement": "relative viability", "setting": "LK-2; first compound 0.4 µM", "value": 0.611}, {"measurement": "relative viability", "setting": "LK-2; first compound 1.265 µM", "value": 0.592}, {"measurement": "relative viability", "setting": "NCI-H322M; first compound 0.04 µM", "value": 0.564}, {"measurement": "relative viability", "setting": "NCI-H322M; first compound 0.1265 µM", "value": 0.526}, {"measurement": "relative viability", "setting": "NCI-H322M; first compound 0.4 µM", "value": 0.487}, {"measurement": "relative viability", "setting": "NCI-H322M; first compound 1.265 µM", "value": 0.482}, {"measurement": "relative viability", "setting": "SK-LU-1; first compound 0.04 µM", "value": 0.559}, {"measurement": "relative viability", "setting": "SK-LU-1; first compound 0.1265 µM", "value": 0.604}, {"measurement": "relative viability", "setting": "SK-LU-1; first compound 0.4 µM", "value": 0.538}, {"measurement": "relative viability", "setting": "SK-LU-1; first compound 1.265 µM", "value": 0.418}, {"measurement": "relative viability", "setting": "NCI-H1975; first compound 0.04 µM", "value": 0.256}, {"measurement": "relative viability", "setting": "NCI-H1975; first compound 0.1265 µM", "value": 0.297}, {"measurement": "relative viability", "setting": "NCI-H1975; first compound 0.4 µM", "value": 0.309}, {"measurement": "relative viability", "setting": "NCI-H1975; first compound 1.265 µM", "value": 0.271}, {"measurement": "relative viability", "setting": "NCI-H2085; first compound 0.04 µM", "value": 0.431}, {"measurement": "relative viability", "setting": "NCI-H2085; first compound 0.1265 µM", "value": 0.427}, {"measurement": "relative viability", "setting": "NCI-H2085; first compound 0.4 µM", "value": 0.536}, {"measurement": "relative viability", "setting": "NCI-H2085; first compound 1.265 µM", "value": 0.568}, {"measurement": "relative viability", "setting": "NCI-H1666; first compound 0.04 µM", "value": 0.406}, {"measurement": "relative viability", "setting": "NCI-H1666; first compound 0.1265 µM", "value": 0.439}, {"measurement": "relative viability", "setting": "NCI-H1666; first compound 0.4 µM", "value": 0.451}, {"measurement": "relative viability", "setting": "NCI-H1666; first compound 1.265 µM", "value": 0.251}, {"measurement": "relative viability", "setting": "ChaGo-K-1; first compound 0.04 µM", "value": 0.788}, {"measurement": "relative viability", "setting": "ChaGo-K-1; first compound 0.1265 µM", "value": 1.11}, {"measurement": "relative viability", "setting": "ChaGo-K-1; first compound 0.4 µM", "value": 0.649}, {"measurement": "relative viability", "setting": "ChaGo-K-1; first compound 1.265 µM", "value": 0.923}, {"measurement": "relative viability", "setting": "NCI-H23; first compound 0.04 µM", "value": 0.532}, {"measurement": "relative viability", "setting": "NCI-H23; first compound 0.1265 µM", "value": 0.519}, {"measurement": "relative viability", "setting": "NCI-H23; first compound 0.4 µM", "value": 0.43}, {"measurement": "relative viability", "setting": "NCI-H23; first compound 1.265 µM", "value": 0.428}, {"measurement": "relative viability", "setting": "LOU-NH91; first compound 0.04 µM", "value": 0.513}, {"measurement": "relative viability", "setting": "LOU-NH91; first compound 0.1265 µM", "value": 0.517}, {"measurement": "relative viability", "setting": "LOU-NH91; first compound 0.4 µM", "value": 0.512}, {"measurement": "relative viability", "setting": "LOU-NH91; first compound 1.265 µM", "value": 0.52}, {"measurement": "relative viability", "setting": "NCI-H1563; first compound 0.04 µM", "value": 0.604}, {"measurement": "relative viability", "setting": "NCI-H1563; first compound 0.1265 µM", "value": 0.658}, {"measurement": "relative viability", "setting": "NCI-H1563; first compound 0.4 µM", "value": 0.65}, {"measurement": "relative viability", "setting": "NCI-H1563; first compound 1.265 µM", "value": 0.742}, {"measurement": "relative viability", "setting": "LU99A; first compound 0.04 µM", "value": 0.321}, {"measurement": "relative viability", "setting": "LU99A; first compound 0.1265 µM", "value": 0.315}, {"measurement": "relative viability", "setting": "LU99A; first compound 0.4 µM", "value": 0.308}, {"measurement": "relative viability", "setting": "LU99A; first compound 1.265 µM", "value": 0.278}, {"measurement": "relative viability", "setting": "HCC-827; first compound 0.04 µM", "value": 1.12}, {"measurement": "relative viability", "setting": "HCC-827; first compound 0.1265 µM", "value": 1.12}, {"measurement": "relative viability", "setting": "HCC-827; first compound 0.4 µM", "value": 0.965}, {"measurement": "relative viability", "setting": "HCC-827; first compound 1.265 µM", "value": 0.859}, {"measurement": "relative viability", "setting": "HCC-78; first compound 0.04 µM", "value": 0.231}, {"measurement": "relative viability", "setting": "HCC-78; first compound 0.1265 µM", "value": 0.263}, {"measurement": "relative viability", "setting": "HCC-78; first compound 0.4 µM", "value": 0.179}, {"measurement": "relative viability", "setting": "HCC-78; first compound 1.265 µM", "value": 0.168}, {"measurement": "relative viability", "setting": "EMC-BAC-2; first compound 0.04 µM", "value": 0.555}, {"measurement": "relative viability", "setting": "EMC-BAC-2; first compound 0.1265 µM", "value": 0.557}, {"measurement": "relative viability", "setting": "EMC-BAC-2; first compound 0.4 µM", "value": 0.537}, {"measurement": "relative viability", "setting": "EMC-BAC-2; first compound 1.265 µM", "value": 0.554}, {"measurement": "relative viability", "setting": "NCI-H2405; first compound 0.04 µM", "value": 0.458}, {"measurement": "relative viability", "setting": "NCI-H2405; first compound 0.1265 µM", "value": 0.543}, {"measurement": "relative viability", "setting": "NCI-H2405; first compound 0.4 µM", "value": 0.383}, {"measurement": "relative viability", "setting": "NCI-H2405; first compound 1.265 µM", "value": 0.408}, {"measurement": "relative viability", "setting": "LXF-289; first compound 0.04 µM", "value": 0.762}, {"measurement": "relative viability", "setting": "LXF-289; first compound 0.1265 µM", "value": 0.869}, {"measurement": "relative viability", "setting": "LXF-289; first compound 0.4 µM", "value": 0.645}, {"measurement": "relative viability", "setting": "LXF-289; first compound 1.265 µM", "value": 0.404}, {"measurement": "relative viability", "setting": "RERF-LC-KJ; first compound 0.04 µM", "value": 0.487}, {"measurement": "relative viability", "setting": "RERF-LC-KJ; first compound 0.1265 µM", "value": 0.594}, {"measurement": "relative viability", "setting": "RERF-LC-KJ; first compound 0.4 µM", "value": 0.503}, {"measurement": "relative viability", "setting": "RERF-LC-KJ; first compound 1.265 µM", "value": 0.501}]}
